Experimental data as given in ChEMBL document CHEMBL1201862, “PubChem BioAssay data set” (2004).
Activity calls are given as the source filed them.

What was measured:
Nonstructural protein 1 = Nonstructural protein 1 (Influenza A virus, UniProt Q194T2); assay type: functional, Influenza A virus (A/California/07/2009(H1N1))
[1] = target: T1, Carboxy-terminal domain RNA polymerase II polypeptide A small phosphatase 1 (Homo sapiens, UniProt Q9GZU7); assay: inhibitors of CTDSP1, concentration-response testing, biochemical assay, absorbance-based, actives from ultra-high-throughput screening (AID 540297); assay type: functional
T1 sequence (Q9GZU7 whole entry): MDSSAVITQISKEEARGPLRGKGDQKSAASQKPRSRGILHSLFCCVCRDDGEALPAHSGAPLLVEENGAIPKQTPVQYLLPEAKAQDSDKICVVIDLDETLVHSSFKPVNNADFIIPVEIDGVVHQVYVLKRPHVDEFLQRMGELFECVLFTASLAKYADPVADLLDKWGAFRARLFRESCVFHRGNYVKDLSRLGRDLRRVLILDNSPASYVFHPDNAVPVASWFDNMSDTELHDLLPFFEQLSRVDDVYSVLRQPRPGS

[2] = target: Heat shock protein HSP 90-alpha (Homo sapiens, UniProt P07900); assay type: functional, organism-based
[3] = cytotoxicity in HEK-293T cells, dose response, cytotoxicity control for TCR NF-kB inhibitor project, luminescence, T-cell screen hits (AID 489026); assay type: functional, cell-based;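 note: cells exposed to compound about 14 hours before the viability readout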
INS1 = assay: beta cell apoptosis inhibitors, cytokine rescue, dose response, luminescence, retest (AID 449756); assay type: functional, cell-based; conditions: Rattus norvegicus;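 note: cell death triggered by IL-1 beta plus TNF-alpha plus IFN-gamma mixture; protective hits raise ATP signal compared with cytokine alone wells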
[4] = target: Eukaryotic translation initiation factor 4E (Mus musculus, UniProt P63073); assay: eIF4E–eIF4G protein interaction inhibitors, dose response, biochemical, TR-FRET (AID 855); assay type: functional;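 note: potency for disrupting eIF4E binding to eIF4GI seen as loss of FRET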
Cytochrome P450 3A4 = Cytochrome P450 3A4 (Homo sapiens, UniProt P08684);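 note: CYP3A4 tested as one member of a cytochrome P450 panel screen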
[5] = target: T2, Long-chain-fatty-acid--AMP ligase FadD28 (Mycobacterium tuberculosis, UniProt P9WQ59); assay: Fluorescence polarization aasay to screen for inhibitors that compete for the binding of FadD28 to a bisubstrate Measured in Biochemical System Using Plate Reader - 2147-01_Inhibitor_Dose_CherryPick_Activity.; assay type: functional, Mycobacterium tuberculosis H37Rv
T2 sequence (P9WQ59 whole entry): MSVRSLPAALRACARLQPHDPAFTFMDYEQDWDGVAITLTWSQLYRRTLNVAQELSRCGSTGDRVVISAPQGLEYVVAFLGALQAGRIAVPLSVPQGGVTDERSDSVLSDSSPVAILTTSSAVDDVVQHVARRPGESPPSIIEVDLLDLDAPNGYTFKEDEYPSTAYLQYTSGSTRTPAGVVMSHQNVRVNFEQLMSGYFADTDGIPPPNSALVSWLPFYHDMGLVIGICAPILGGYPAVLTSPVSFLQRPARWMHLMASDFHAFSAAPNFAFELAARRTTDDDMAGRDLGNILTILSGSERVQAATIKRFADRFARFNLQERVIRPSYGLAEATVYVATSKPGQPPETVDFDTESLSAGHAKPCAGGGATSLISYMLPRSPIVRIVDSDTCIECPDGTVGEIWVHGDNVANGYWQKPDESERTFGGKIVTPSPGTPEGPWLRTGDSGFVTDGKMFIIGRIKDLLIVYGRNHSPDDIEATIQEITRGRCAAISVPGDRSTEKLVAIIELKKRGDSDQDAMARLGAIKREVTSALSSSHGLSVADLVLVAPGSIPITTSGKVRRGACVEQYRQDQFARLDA

[6] = target: T3, Short transient receptor potential channel 4 (Mus musculus, UniProt Q9QUQ5); assay: mouse TRPC4 channel inhibitors, dose response, cell-based, HEK293 TRPC4/mu-opioid, Fluo-4 calcium (AID 434942); assay type: functional;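 note: potency of inhibitors blocking the TRPC4 calcium response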
T3 sequence (Q9QUQ5 whole entry): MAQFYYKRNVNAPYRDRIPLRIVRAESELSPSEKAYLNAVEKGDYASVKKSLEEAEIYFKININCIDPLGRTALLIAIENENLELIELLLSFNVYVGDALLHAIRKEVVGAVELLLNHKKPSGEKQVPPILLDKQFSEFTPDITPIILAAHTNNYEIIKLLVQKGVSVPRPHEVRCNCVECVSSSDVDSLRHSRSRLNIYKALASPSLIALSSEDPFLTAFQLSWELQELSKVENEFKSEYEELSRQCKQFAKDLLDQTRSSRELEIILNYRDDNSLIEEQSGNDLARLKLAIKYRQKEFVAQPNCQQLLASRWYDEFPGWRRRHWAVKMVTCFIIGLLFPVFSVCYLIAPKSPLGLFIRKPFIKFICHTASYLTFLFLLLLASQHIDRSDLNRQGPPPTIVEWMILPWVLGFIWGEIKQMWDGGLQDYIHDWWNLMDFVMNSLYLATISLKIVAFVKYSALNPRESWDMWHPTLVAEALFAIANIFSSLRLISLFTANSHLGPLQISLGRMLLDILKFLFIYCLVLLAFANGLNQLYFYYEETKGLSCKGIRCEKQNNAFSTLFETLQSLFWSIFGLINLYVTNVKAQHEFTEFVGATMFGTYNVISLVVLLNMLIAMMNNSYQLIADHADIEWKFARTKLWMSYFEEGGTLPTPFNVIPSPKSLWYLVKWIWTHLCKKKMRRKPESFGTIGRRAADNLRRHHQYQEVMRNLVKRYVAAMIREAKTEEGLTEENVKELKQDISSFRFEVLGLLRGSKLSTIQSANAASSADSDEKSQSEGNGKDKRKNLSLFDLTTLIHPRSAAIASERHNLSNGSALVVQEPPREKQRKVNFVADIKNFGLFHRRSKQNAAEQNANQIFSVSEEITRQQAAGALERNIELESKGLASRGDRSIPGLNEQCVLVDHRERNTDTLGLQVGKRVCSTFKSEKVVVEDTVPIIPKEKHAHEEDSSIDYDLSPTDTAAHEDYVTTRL

[7] = inhibitors of firefly luciferase expression or activity, dose response, H4 neuroglioma cells, luminescence (AID 1990); assay type: functional, cell-based
[8] = inhibitors of SNCA 5'UTR-driven reporter translation, confirmation, H4 neuroglioma cells, luminescence (AID 1988); assay type: functional, cell-based
[9] = Luminescence Cell-Based Dose Response HTS to Identify Inhibitors of 5'UTR Stem-Loop Driven Prion Protein mRNA Translation in H4 Neuroglioblastoma Cells. [Related pubchem assays: 1827 (Project Summary), 1813 (Primary HTS)]; assay type: functional
[10] = target: T4, Rac GTPase-activating protein 1 (Homo sapiens, UniProt Q9H0H5); assay: MgcRacGAP GTPase-activating activity inhibitors, confirmation, biochemical, ADP Hunter fluorescence, primary and confirmatory (AID 624330); assay type: functional
T4 sequence (Q9H0H5 whole entry): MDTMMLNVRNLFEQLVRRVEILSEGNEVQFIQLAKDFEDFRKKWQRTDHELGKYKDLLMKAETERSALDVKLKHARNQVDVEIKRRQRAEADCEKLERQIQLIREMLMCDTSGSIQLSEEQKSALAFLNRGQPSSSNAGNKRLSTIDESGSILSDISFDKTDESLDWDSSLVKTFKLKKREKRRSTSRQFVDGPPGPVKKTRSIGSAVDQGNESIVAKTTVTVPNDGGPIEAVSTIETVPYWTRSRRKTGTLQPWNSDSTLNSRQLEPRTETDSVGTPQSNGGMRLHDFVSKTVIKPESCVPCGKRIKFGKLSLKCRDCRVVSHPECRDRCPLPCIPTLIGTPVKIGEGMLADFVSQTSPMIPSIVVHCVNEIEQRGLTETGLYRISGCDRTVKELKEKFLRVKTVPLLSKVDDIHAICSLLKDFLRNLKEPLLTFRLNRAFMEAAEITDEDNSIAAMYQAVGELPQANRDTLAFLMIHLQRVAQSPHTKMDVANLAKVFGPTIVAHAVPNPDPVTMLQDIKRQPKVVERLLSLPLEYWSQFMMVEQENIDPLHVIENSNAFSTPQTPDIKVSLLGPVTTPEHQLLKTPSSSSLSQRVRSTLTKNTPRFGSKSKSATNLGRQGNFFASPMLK

[11] = target: Dual specificity tyrosine-phosphorylation-regulated kinase 1A (Rattus norvegicus, UniProt Q63470); assay type: biochemical, Homo sapiens
[12] = target: T3, Short transient receptor potential channel 4; assay: mouse TRPC4 channel activators, dose response, cell-based, HEK293 TRPC4/mu-opioid, Fluo-4 calcium (AID 434937); assay type: functional
[13] = HepG2 cell cytotoxicity, dose response, cytotoxicity control for Shn3 inhibitor project, CellTiter-Glo, cherry-picked (AID 624134); assay type: functional, cell-based
[14] = target: T5, Corticotropin-releasing factor receptor 2/Corticotropin-releasing factor-binding protein (Homo sapiens, UniProt P24387+Q13324); assay: activators of CRF receptor 2 with binding protein – uHTS hits, confirmation (AID 602473); assay type: functional; conditions: read-out: EC50_Mean
T5 sequence (Q13324 whole entry): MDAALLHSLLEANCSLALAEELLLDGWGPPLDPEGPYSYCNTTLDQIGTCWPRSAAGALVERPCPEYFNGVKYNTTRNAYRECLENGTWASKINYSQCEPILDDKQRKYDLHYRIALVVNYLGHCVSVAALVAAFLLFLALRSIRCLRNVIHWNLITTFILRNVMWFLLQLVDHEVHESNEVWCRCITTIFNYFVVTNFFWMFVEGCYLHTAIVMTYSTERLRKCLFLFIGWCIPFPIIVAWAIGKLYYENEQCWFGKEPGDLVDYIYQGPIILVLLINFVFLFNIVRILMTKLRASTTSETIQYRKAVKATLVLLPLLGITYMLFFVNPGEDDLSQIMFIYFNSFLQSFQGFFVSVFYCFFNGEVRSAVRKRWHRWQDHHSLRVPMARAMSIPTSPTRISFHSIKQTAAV
T5 sequence (P24387 whole entry): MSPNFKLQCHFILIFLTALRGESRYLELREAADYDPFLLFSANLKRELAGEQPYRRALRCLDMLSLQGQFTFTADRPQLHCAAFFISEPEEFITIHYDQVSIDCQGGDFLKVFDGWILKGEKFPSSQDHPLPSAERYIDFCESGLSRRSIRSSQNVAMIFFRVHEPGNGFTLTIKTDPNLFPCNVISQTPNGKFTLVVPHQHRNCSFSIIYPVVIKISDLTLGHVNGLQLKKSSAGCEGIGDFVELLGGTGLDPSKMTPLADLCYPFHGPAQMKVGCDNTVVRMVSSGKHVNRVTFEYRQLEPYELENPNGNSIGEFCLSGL

Sequence of Nonstructural protein 1 (Q194T2 whole entry, the tested form may be a part): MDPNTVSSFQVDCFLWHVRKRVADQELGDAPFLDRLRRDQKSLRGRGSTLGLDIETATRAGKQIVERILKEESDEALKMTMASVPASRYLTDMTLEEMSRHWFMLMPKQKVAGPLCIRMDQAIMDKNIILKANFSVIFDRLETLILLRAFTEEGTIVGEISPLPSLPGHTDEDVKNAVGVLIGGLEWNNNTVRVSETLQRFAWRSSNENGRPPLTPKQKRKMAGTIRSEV
Sequence of Eukaryotic translation initiation factor 4E (P63073 whole entry): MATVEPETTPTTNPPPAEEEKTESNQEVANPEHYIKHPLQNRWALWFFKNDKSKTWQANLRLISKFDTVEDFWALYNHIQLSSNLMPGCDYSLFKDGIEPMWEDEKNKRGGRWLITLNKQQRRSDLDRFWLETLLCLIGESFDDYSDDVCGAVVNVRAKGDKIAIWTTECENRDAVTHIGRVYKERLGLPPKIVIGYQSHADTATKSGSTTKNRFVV
Sequence of Cytochrome P450 3A4 (P08684 whole entry): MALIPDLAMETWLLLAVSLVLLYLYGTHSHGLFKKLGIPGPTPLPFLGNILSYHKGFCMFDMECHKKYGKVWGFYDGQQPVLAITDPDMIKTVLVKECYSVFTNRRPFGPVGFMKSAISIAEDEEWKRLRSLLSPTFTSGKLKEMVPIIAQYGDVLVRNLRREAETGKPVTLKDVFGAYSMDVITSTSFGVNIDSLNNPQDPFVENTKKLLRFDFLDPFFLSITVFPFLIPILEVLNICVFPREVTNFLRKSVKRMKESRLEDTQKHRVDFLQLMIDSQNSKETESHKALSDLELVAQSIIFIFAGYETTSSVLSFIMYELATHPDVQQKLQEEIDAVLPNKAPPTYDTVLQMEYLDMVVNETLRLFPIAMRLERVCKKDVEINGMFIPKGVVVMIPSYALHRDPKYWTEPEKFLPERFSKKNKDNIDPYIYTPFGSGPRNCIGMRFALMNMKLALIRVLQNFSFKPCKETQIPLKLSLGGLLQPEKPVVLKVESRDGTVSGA

SMILES: CN1CCN(c2cc(N3CCN(C(=O)c4ccco4)CC3)c3c4c(onc24)-c2ccccc2C3=O)CC1
- IC50 (Nonstructural protein 1): 15.3 µM (active)

SMILES: CSCC[C@H](NS(=O)(=O)c1ccc(C(C)=O)cc1)c1nnc2ccccn12
- IC50 [1]: 5.88 µM (active)

SMILES: Cc1c(C)c2cccnc2c2ncccc12
- AC50 [2]: 3.99 µM (active)
- IC50 [3]: > 80 µM (inactive)
- AC50 (INS1): 1.57 µM (active)

SMILES: Cc1c(OC(=O)c2ccc([N+](=O)[O-])cc2)c2c(c[n+]1C)COC(C)(C)OC2
- IC50 [4]: > 64 µM (inactive)
- AC50 (Cytochrome P450 3A4): 7.08 µM (inconclusive)
- IC50 [1]: 4.14 µM (active)

SMILES: Cc1cccc(NC(=O)CN2C(=O)S/C(=C\c3cccn3-c3cccc(C(=O)O)c3)C2=O)c1
- AC50 [5]: 0.519 µM (active)
- IC50 [1]: 6.83 µM (active)

SMILES: COc1ccc(Nc2c3c(nc4ccccc24)CCC3)cc1
- EC50 [6]: 4.22 µM (active)

SMILES: Cc1cc(N(C)C)ccc1N=Nc1ccc2ncccc2c1
- IC50 (Nonstructural protein 1): 9.43 µM (active)

SMILES: COc1ccc(/C=N/NC(=O)COc2ccccc2-c2ccccc2)cc1
- IC50 [3]: > 80 µM (inactive)
- EC50 [7]: 8.05 µM (active)
- EC50 [8]: 0.166 µM (active)
- EC50 [9]: 0.483 µM (active)

SMILES: CC(C)CN(CC(C)C)c1nc(N)c(C#N)c(CC#N)c1C#N
- EC50 [6]: 5.96 µM (active)

SMILES: COc1ccc(Nc2nc(N)c3ccccc3n2)c(OC)c1
- EC50 [6]: 4.22 µM (active)

SMILES: CCCC(=O)Nc1nc2ccc(S(=O)(=O)N3CCCCC3)cc2s1
- IC50 [3]: > 80 µM (inactive)

SMILES: COc1cc(/C=C2\SC(=S)N(NC(=O)c3cccc(O)c3)C2=O)ccc1O
- IC50 [10]: 54.8 µM (active)
- AC50 [5]: 32 µM (inactive)
- AC50 [11]: 6.23 µM (active)

SMILES: CCn1cc(CN2CCC(n3nccc3NC(=O)CCCc3ccccc3)CC2)cn1
- EC50 [12]: 1.33 µM (active)
- EC50 [6]: 1.19 µM (active)

SMILES: CCCc1noc2c1/C(=N\O)CC(CC(C)SCC)C2 (stereo not given)
- EC50 [6]: 1.5 µM (active)

SMILES: COc1ccc(/C=C2\SC(=O)NC2=S)cc1OC
- AC50 [11]: 9.55 µM (active)

SMILES: CCOC(=O)CN1C(=O)S/C(=C\c2ccc(-c3ccc(C(=O)O)c(Cl)c3)o2)C1=O
- IC50 [1]: 4.84 µM (active)

SMILES: CCOc1ccc(Br)cc1C1=CC(=O)C[C@H](c2ccc(OC)cc2)C1
- IC50 [3]: > 80 µM (inactive)
- AC50 [13]: > 70 µM (inactive)
- EC50 [14]: > 53 µM (inactive)
